Test results reported in US11874603B2, “Photoresist composition comprising amide compound and pattern formation methods using the same” (Rohm And Haas Electronic Materials Korea Ltd., priority 2021, dated 2024).

Test: lipophilicity (log P) of the quencher
Assay type: physicochemical
Details: organic (oil) phase / aqueous phase partition
Source text: Lipophilicity, most commonly referred to as the Log P, represents the ratio at equilibrium of the concentration of a compound between two phases, an oil and a […] phase. The Log P value is a constant defined in the following manner: Log P=log 10 (Partition Coefficient) Partition Coefficient, P=[organic]/[aqueous] where the square bracket parenthesis “[ ]” indicates the concentration of solute in the organic and aqueous partition.

logP | SMILES
10.8 | CCCCCCCCN(CCCCCCCC)CCCCCCCC [Quencher-A]
10.2 | CCCCCCCCN(CCCCCCCC)C(=O)CCCCCCC [Quencher-B]
5.6 | CCCCCCCCCCCC(=O)N(CC)CC [Quencher-H]
6.69 | CCCCCCCCN(CCCCCCCC)C(C)=O [Quencher-I]
